Where a name gives a salt, the structure may show the parent alone. The source made the active and inactive calls.
How the values were obtained:
[1] = biological target: T1, Nuclear receptor subfamily 0 group B member 1 (Homo sapiens, UniProt P51843); assay type: functional, cell-based;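 further: HEK293T cells transfected with SF-1 and DAX-1 plus StAR promoter luciferase reporter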
T1 sequence (P51843 whole entry): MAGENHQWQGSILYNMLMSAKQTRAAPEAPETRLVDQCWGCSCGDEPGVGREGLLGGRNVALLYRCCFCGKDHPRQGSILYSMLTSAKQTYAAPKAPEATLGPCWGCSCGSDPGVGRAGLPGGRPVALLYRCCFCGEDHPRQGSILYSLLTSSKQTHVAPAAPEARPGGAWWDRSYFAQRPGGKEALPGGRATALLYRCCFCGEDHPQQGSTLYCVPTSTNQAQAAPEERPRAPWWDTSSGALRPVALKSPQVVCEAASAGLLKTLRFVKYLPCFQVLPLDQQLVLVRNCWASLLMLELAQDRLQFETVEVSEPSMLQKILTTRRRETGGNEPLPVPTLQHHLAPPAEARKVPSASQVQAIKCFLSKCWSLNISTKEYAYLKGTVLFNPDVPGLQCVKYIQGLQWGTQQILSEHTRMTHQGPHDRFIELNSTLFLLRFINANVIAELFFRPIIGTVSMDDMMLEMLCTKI

cells [2] = assay type: functional, cell-based
Protein S100-A4 = Protein S100-A4 (Homo sapiens, UniProt P26447); assay: human S100A4 peptide interaction inhibition curves – biochemical, fluorescence polarization, cherry-picked hits, dose response (AID 687001); assay type: functional
[3] = biological target: SWI/SNF-related matrix-associated actin-dependent regulator of chromatin subfamily A member 2 (Homo sapiens, UniProt P51531); assay: Luminescence-based cell-based high throughput dose response assay to identify activators of the function of SWI/SNF related, matrix associated, actin dependent regulator of chromatin, subfamily a, member 2 (SMARCA2, BRM).; assay type: functional
[4] = Counterscreen for activators of the function of SWI/SNF related, matrix associated, actin dependent regulator of chromatin, subfamily a, member 2 (SMARCA2, BRM): Luminescence-based cell-based high throughput dose response assay to identify non-selective compounds using the VP16 reporter assay.; assay type: functional
Galanin receptor type 3 = Galanin receptor type 3 (Homo sapiens, UniProt O60755); assay: Fluorescence-based cell-based primary high throughput dose response assay to identify antagonists of the Galanin Receptor 3 (GalR3).; assay type: functional
[5] = HEK-293T viability loss after treatment – luminescence, T-cell screen hits, cytotoxicity control for TCR NF-kB inhibitor project, dose response (AID 489026); assay type: functional, cell-based;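 further: cells exposed to compound about 14 hours before the viability readout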
cells [6] = assay type: functional, cell-based; details: HEK-CNG
[7] = biological target: T2, Trace amine-associated receptor 1 (Homo sapiens, UniProt Q96RJ0); assay: Fluorescence-based cell-based high throughput dose response assay to identify agonists of the human trace amine associated receptor 1 (TAAR1).; assay type: functional
[8] = biological target: T2, Trace amine-associated receptor 1; assay: Counterscreen for agonists of the human trace amine associated receptor 1 (hTAAR1): Fluorescence-based cell-based high throughput dose response assay to identify hTAAR1 agonist that also desensitize TAAR1 receptor response.; assay type: functional
cells [9] = assay type: functional, cell-based; remark: listed apart in the source
cells [10] = assay type: functional, cell-based; remark: listed apart in the source
Cytochrome P450 3A4 = Cytochrome P450 3A4 (Homo sapiens, UniProt P08684); details: Potency;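 further: confirmatory qHTS run detecting inhibitors and substrates of CYP3A4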
Mu-type opioid receptor = Mu-type opioid receptor (Homo sapiens, UniProt P35372); assay type: functional, cell-based;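 further: U2OS cells with beta-arrestin recruitment to OPRM1 by beta-gal complementation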
[11] = biological target: 5-hydroxytryptamine receptor 2A (Mus musculus, UniProt P35363); assay type: functional, cell-based;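 further: CHO-K1 cells with tagged receptor and beta-arrestin; agonist potency measured as compound-induced activation of the receptor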
Vero = assay: viability loss in Vero cells – cell-based, plate reader, cherry-pick samples, cytotoxicity control, dose response (AID 687020); assay type: functional; details: Chlorocebus sabaeus
[12] = biological target: T3, Sentrin-specific protease 8 (Homo sapiens, UniProt Q96LD8); assay type: functional
T3 sequence (Q96LD8 whole entry): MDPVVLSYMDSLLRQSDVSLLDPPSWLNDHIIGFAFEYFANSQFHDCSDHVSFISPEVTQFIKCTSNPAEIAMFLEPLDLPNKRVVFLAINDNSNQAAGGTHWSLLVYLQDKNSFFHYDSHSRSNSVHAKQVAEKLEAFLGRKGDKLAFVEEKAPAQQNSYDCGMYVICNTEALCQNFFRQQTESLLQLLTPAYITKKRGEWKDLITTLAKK

[13] = biological target: T4, Sentrin-specific protease 7 (Homo sapiens, UniProt Q9BQF6); assay type: functional;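 further: Luminescence-based dose-response confirmation of ultra-high-throughput screening hits, measuring inhibition of SENP7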
T4 sequence (Q9BQF6 whole entry): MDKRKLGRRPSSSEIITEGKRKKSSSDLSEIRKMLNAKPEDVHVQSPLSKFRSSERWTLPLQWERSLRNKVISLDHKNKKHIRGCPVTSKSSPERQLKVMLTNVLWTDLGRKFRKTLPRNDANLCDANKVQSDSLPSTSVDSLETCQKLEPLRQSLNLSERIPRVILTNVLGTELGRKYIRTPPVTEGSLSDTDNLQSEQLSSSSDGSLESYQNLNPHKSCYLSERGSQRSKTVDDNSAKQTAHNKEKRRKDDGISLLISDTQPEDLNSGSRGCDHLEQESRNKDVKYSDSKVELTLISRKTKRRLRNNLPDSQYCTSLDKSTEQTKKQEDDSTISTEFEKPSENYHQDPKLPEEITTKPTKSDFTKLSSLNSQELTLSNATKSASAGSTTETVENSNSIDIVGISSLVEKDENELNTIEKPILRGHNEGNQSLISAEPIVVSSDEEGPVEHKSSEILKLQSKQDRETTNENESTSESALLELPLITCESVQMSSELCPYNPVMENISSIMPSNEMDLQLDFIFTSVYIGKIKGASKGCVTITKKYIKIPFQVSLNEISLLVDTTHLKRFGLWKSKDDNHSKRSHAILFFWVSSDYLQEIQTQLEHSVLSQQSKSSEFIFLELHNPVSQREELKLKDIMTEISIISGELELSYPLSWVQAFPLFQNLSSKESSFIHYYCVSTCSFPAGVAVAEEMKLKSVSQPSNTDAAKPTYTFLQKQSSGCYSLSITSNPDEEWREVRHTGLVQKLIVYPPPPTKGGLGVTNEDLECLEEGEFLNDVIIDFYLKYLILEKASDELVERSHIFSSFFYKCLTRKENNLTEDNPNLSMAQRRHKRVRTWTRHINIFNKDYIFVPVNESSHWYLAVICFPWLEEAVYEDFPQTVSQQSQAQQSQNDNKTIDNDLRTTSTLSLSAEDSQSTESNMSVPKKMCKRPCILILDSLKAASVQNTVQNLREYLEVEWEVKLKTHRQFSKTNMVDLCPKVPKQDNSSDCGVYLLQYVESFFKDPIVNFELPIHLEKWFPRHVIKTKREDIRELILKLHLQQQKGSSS

[14] = biological target: Mitochondrial peptide methionine sulfoxide reductase (Bos taurus, UniProt P54149); assay: Absorbance-based biochemical high throughput dose response assay for activators of Methionine sulfoxide reductase A (MsrA).; assay type: functional
[15] = biological target: T5, Sentrin-specific protease 6 (Homo sapiens, UniProt Q9GZR1); assay type: functional;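 further: Luminescence-based dose-response confirmatory assay of SENP6 inhibition, following up an ultra-high-throughput screen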
T5 sequence (Q9GZR1 whole entry): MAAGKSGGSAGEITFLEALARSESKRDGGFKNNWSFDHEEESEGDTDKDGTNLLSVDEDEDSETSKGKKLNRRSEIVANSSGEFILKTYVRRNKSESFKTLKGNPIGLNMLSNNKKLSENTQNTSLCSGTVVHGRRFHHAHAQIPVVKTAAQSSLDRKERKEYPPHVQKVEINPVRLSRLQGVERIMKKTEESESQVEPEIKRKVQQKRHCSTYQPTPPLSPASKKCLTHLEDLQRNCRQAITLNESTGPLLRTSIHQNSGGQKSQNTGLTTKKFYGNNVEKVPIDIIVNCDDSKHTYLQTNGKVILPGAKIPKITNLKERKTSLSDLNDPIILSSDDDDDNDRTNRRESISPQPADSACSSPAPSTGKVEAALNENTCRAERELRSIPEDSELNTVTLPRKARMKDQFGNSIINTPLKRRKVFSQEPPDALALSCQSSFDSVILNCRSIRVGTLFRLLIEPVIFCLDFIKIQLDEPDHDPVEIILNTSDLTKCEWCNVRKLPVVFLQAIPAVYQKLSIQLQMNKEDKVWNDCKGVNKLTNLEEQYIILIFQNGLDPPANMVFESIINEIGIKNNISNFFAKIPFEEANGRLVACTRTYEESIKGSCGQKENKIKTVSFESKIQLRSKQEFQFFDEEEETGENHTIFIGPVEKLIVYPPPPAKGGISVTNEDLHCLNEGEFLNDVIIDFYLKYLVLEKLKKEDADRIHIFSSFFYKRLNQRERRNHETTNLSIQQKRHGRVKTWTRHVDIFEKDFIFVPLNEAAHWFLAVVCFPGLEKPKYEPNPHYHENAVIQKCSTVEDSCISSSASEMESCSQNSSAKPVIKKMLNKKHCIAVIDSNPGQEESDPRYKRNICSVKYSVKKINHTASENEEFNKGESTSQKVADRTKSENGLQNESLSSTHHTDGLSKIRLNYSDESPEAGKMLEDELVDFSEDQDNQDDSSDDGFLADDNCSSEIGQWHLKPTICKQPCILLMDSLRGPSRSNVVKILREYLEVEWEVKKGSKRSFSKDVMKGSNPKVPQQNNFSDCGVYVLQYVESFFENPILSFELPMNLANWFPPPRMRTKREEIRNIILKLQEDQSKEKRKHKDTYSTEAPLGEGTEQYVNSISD

Caspase-3 [16] = biological target: T6, Caspase-3 (Homo sapiens, UniProt P42574); assay: Dose-response confirmation of uHTS inhibitor hits of Sentrin-Specific Protease 8 in a Caspase-3 Fluorescence assay.; assay type: functional
T6 sequence (P42574 whole entry): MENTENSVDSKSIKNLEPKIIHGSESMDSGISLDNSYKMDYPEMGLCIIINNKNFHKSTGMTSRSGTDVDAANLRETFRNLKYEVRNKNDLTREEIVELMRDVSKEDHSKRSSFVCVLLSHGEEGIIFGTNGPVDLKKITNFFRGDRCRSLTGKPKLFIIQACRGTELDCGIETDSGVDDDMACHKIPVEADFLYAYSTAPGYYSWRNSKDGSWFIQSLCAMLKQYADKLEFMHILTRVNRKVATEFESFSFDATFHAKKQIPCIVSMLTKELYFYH

Caspase-3 [17] = biological target: T6, Caspase-3; assay type: functional
[18] = biological target: T3, Sentrin-specific protease 8; assay type: functional; remark: listed apart in the source
[19] = biological target: T3, Sentrin-specific protease 8; assay type: functional; remark: listed apart in the source

T2 sequence (Q96RJ0 whole entry): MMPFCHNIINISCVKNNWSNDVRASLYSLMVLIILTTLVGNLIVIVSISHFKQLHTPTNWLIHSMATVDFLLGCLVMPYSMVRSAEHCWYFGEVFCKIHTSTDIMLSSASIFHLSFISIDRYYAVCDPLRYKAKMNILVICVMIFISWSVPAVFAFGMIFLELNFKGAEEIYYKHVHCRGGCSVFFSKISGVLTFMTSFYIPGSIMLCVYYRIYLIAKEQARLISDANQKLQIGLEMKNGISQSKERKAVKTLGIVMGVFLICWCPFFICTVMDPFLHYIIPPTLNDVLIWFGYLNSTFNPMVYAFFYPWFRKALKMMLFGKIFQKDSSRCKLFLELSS
Chain of SWI/SNF-related matrix-associated actin-dependent regulator of chromatin subfamily A member 2 (P51531 whole entry): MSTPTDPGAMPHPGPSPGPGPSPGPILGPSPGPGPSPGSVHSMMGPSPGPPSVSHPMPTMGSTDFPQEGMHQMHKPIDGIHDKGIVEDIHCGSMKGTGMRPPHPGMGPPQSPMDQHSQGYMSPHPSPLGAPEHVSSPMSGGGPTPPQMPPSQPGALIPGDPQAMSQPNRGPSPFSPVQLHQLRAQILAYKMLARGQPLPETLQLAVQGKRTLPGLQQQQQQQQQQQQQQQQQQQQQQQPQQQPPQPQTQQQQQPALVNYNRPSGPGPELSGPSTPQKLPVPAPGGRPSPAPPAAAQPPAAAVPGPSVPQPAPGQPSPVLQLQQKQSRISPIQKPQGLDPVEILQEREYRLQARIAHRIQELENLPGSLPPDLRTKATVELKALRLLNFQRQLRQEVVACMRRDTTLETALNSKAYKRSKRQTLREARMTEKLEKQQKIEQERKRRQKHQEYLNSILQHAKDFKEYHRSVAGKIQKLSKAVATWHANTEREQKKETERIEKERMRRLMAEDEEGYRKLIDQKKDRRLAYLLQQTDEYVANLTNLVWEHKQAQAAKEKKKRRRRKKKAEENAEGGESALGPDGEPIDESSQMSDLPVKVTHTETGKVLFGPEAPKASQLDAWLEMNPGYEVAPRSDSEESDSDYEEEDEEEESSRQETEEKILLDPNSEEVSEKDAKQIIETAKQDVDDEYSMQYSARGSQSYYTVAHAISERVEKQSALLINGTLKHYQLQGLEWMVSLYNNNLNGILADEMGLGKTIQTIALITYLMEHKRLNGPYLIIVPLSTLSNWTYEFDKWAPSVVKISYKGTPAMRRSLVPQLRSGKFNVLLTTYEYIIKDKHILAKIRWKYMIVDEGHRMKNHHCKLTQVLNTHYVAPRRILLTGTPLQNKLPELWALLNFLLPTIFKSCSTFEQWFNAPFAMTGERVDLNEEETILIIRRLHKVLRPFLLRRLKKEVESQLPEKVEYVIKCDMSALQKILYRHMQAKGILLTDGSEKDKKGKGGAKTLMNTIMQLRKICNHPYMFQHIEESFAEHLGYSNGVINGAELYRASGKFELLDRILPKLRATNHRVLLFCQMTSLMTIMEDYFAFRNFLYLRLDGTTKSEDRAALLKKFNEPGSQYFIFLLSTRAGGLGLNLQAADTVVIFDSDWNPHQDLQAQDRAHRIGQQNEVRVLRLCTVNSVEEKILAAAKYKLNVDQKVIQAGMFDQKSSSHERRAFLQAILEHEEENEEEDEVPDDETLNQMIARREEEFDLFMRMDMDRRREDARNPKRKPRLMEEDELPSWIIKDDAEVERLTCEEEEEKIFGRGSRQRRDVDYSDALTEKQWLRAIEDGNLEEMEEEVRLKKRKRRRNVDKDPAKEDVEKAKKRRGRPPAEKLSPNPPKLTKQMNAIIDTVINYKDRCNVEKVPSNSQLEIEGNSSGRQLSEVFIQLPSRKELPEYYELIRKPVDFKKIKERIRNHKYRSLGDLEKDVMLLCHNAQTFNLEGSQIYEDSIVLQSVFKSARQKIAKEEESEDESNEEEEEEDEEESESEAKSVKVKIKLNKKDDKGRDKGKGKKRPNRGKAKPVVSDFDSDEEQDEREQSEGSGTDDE
Chain of Galanin receptor type 3 (O60755 whole entry): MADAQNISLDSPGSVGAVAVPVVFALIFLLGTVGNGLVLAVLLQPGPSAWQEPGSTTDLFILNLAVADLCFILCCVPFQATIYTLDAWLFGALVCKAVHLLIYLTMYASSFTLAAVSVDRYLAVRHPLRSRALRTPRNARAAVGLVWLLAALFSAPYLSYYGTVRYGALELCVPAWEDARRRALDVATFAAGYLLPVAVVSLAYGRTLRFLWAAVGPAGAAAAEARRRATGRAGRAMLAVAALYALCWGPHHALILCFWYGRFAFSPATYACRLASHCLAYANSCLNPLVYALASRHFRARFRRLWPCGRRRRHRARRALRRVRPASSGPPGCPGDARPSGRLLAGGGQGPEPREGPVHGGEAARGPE
Chain of Mitochondrial peptide methionine sulfoxide reductase (P54149 whole entry): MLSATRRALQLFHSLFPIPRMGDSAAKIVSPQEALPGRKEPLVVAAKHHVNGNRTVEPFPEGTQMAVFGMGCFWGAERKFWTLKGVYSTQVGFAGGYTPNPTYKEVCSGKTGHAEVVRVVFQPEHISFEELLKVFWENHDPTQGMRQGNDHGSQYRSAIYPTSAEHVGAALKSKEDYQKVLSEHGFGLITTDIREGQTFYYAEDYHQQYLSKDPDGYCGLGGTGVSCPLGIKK
Chain of 5-hydroxytryptamine receptor 2A (P35363 whole entry): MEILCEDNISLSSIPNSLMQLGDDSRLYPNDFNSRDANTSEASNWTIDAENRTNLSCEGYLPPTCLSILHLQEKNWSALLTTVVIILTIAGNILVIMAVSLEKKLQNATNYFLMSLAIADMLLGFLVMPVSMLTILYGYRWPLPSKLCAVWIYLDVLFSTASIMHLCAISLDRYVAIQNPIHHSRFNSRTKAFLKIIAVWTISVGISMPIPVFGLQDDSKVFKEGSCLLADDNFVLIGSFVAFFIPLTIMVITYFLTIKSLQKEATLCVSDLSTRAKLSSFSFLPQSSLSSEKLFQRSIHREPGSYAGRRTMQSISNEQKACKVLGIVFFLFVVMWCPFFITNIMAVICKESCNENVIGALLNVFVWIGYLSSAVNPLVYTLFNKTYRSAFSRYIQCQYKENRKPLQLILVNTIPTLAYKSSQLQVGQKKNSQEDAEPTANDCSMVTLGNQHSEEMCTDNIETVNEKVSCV
Chain of Protein S100-A4 (P26447 whole entry): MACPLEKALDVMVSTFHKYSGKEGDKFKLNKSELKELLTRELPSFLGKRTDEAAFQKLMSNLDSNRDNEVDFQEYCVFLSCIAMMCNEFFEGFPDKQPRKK
Chain of Mu-type opioid receptor (P35372 whole entry): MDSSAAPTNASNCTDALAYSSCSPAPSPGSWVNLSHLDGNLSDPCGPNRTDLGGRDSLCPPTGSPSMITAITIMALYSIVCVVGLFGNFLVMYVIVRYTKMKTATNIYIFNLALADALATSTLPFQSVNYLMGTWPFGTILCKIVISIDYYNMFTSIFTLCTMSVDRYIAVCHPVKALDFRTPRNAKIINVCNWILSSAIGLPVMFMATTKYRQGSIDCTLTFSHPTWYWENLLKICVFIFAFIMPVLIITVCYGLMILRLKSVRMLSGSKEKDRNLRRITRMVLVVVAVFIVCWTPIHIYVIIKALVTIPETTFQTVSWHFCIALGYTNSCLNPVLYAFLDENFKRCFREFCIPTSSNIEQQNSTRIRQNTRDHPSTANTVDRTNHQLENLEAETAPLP
Chain of Cytochrome P450 3A4 (P08684 whole entry): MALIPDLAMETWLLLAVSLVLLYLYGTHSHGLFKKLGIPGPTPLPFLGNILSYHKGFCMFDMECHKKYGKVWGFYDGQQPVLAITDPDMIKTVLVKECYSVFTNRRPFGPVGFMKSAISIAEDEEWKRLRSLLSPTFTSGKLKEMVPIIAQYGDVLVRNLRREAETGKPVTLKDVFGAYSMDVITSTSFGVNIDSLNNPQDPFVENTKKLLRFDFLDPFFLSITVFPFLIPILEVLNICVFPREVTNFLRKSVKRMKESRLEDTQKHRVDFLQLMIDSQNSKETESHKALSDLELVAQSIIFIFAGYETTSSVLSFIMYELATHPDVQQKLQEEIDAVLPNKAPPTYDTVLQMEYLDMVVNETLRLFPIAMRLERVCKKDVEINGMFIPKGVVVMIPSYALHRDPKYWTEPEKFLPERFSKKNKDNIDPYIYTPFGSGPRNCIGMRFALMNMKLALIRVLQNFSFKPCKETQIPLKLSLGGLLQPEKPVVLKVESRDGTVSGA

In the case of `Cn1nnnc1SCC(=O)Nc1ccc2c(c1)OCCO2`, the IC50 [1] is reported as > 67.5 µM (inactive) and the IC50 (cells [2]) is reported as > 67.5 µM (inactive).

In the case of `O=C(CCc1ccccc1Cl)NC1CCCN(c2ccc(C(F)(F)F)cn2)C1` (centres undefined), the AC50 (Protein S100-A4) is reported as 9.67 µM (active).

For `CCCCn1c(=N)n(CC(=O)c2ccc(OC)cc2)c2ccccc21`, the EC50 [3] was > 91.1 µM (inactive) and the EC50 [4] was > 91.1 µM (inactive).

With `CCCCc1ccc(NC(=O)c2ccc(N(C)S(C)(=O)=O)cc2)cc1` the IC50 (Galanin receptor type 3) was 0.996 µM (active), the IC50 [5] was > 80 µM (inactive) and the EC50 (cells [6]) was > 29.9 µM (inactive).

In the case of `NCC(=O)c1ccccc1` [PHENACYLAMINE HYDROCHLORIDE], the EC50 [7] is reported as 1.08 µM (active), the IC50 [8] is reported as 7.42 µM (active) and the EC50 (cells [9]) is reported as > 29.9 µM (inactive). The IC50 (cells [10]) was > 29.9 µM (inactive) and the AC50 (Cytochrome P450 3A4) was 6.31 µM (inconclusive).

With `Cc1ccc(C)c(CN2CCN(c3ncccn3)CC2)c1` the EC50 (Mu-type opioid receptor) was 92.4 µM (inactive) and the EC50 [11] was 76 µM (inactive).

In the case of `CC1(C(=O)NCc2cccc(C(F)(F)F)c2)CCN1Cc1cc2ccccc2o1` (centres undefined), the AC50 (Vero) is reported as 20.4 µM (active).

In the case of `O=C(COC(=O)c1ccc([N+](=O)[O-])s1)NNC(=O)c1ccccc1`, the IC50 [12] is reported as 4.2 µM (active), the IC50 [13] is reported as 6.91 µM (active) and the EC50 [14] is reported as 36.1 µM (inactive). The IC50 [15] was 4.34 µM (active), the IC50 (Caspase-3 [16]) was 84.6 µM (inactive) and the IC50 (Caspase-3 [17]) was 6.74 µM (active). The IC50 [18] was 2.3 µM (active) and the IC50 [19] was 4.94 µM (active).
